Test results published in paper PMC8918352, “Structure and activity of the DHNA Coenzyme-A Thioesterase from Staphylococcus aureus providing insights for innovative drug development” (Scientific Reports, 2022).

Assays:
[1] = system: SaDHNA WT (DHNA Coenzyme-A thioesterase); assay: Thioesterase activity of SaDHNA wild type (DTNB/TNB, 412 nm); format: biochemical, Staphylococcus aureus
Description: (§1) To obtain some initial information about SaDHNA thioesterase substrate specificity, two different substrates classified according to their CoA chain length and unsaturation degree were assessed. The longest acyl-CoA chain substrate contained eighteen acyl saturated chain stearoyl-CoA (C18:0), while the shortest chain contained four acyl chain crotonyl-CoA with one unsaturation (C4:1). Thioesterase activity was observed by the increase in free thiol-CoA thioester hydrolysis formation of the 2-nitro-5-thiobenzoate anion (TNB^2−), resulting from the reaction of the thiolate anion (RS^−) with Ellman’s reagent (DTNB^2−) and one mixed disulphide (R-S-TNB^−). […]
(§2) The thioesterase activity of SaDHNA was measured according to a protocol of Rodríguez-Guilbe and co-workers[36]. In a ELISA microplate the formation of 2-nitro-5-thiobenzoate anion (TNB2-) by the reaction of thiolate anion (RS^−) with Ellman′s reagent (DTNB^2−) and one mixed disulphide (R-S-TNB^−) catalysed by purified SaDHNA wild type (WT), D16A and E31N was followed by monitoring the change in absorbance of thionitrobenzoic acid (TNB) at 412 nm (extinction coefficient of 13.600 M^−1 cm^−1) using a TECAN GENios plate reader (XFLUOR4 Version: V 4.40, MTX Lab Systems, Inc, USA). […] In addition, uncatalyzed reaction rates were monitored by the combination of same reagents without the enzyme. […]

SaDHNA = assay: Intrinsic (tryptophan) fluorescence quenching of SaDHNA by peptides, Stern–Volmer analysis; format: binding, Staphylococcus aureus; conditions: for bimolecular quenching constant (Kq) / shift of SaDHNA emission spectra maximum / fluorescence intensity of SaDHNA: 60 nM SaDHNA; for bimolecular quenching constant (Kq): 100 mM sodium phosphate pH 6.0, 150 mM NaCl, 22 °C, excitation 290 nm, emission 300–420 nm, peptide 60–1000 nM, from second, slower quenching step, five assays; for shift of SaDHNA emission spectra maximum / fluorescence intensity of SaDHNA: peptide up to 1000 nM, pH 6.0, 22 °C; for shift of SaDHNA emission spectra maximum: maximum emission near 340 nm; for quenching mechanism: from Kq above diffusive limit, complex association between SaDHNA and peptides
Description: Fluorescence spectroscopy was employed to analyse the inhibition of SaDHNA by the aforementioned peptides. The intrinsic fluorescence quenching was assessed for a gradient concentration of Pep-1 and Pep-2. The emission spectra of SaDHNA in buffer only and SaDHNA quenched with different concentrations of Pep-1 and Pep-2 are shown in Fig. 5a,b, respectively. The amino acid sequence of SaDHNA has three tryptophan residues, W29, W79 and W129 and a corresponding maximum emission near 340 nm. […] According to the quenching theory this may indicate a decrease in the lifetime of the excited state, corresponding to an additional rate process that depopulates the excited state and/or the formation of a non-radioactive ground state between the fluorophore and the quencher resulting in a non-fluorescence emission[25],[26].
The Stern–Volmer theory explains the relationship between fluorescence intensity and the presence of a quencher. The data obtained with different concentrations of peptides were analysed independently of the quenching process. Thereby the bimolecular quenching constant (Kq) assigned to the efficiency of quenching and the binding or affinity constant (Ka) for the associated complex were calculated[27],[28]. […] To investigate the quenching process and to estimate Kq and Ka the data from the second and slower step were considered (Fig. 6b,c, respectively). To estimate the bimolecular quenching constant (Kq), the Stern–Volmer quenching constant (Ksv) was determined from the slopes of Io/I versus Q (quencher concentration) (Fig. 6b) and […], which corresponds approximately to the lifetime of a biomolecule fluorophore in the absence of a quenching agent. Therefore, Kq [M^−1 s^−1] for Pep-1 and Pep-2 were 13.3 × 10^12 ± 0.6 × 10^12 and 9.3 × 10^12 ± 1.8 × 10^12, respectively. According to the diffusion controlled quenching theory Kq values close to 1 × 10 ^10 M^−1 s^−1 are associated with a process involving dynamic quenchers, whereas values of Kq larger than the diffusive limit indicate binding interactions between the fluorophore and the quencher.
As the estimated Kq presented higher values than expected for dynamic quenching, we analysed the data applying static quenching theory to estimate the affinity constant Ka for the associated complex. The intercept of log ((Io-I)/I) versus log Q plot (Fig. 6c) is equal to the logarithm of Ka.. Thereby the intercept antilog calculation determines the Ka values for both peptides.
Fluorescence measurements were performed using a Cary eclipse fluorescence spectrophotometer coupled with a peltier temperature control (Agilent, USA). All assays were carried out in 1 mL cuvettes at 22 °C with excitation/emission slits at 20 nm each. The applied excitation wavelength was 290 nm and emission spectra were collected in the range of 300 up to 420 nm in increments of 1 nm. SaDHNA quenching experiments were performed with two peptides (Pep-1: YGSDGR and Pep-2: EGEYE, using a concentration range from 60 up to 1000 nM. SaDHNA at a concentration of 60 nM in 100 mM sodium phosphate buffer pH 6.0, 150 mM NaCl was applied and small volumes of the stock peptide solution were sequentially added to the cuvette for quenching analysis. Each SaDHNA-peptide assay was performed five times. As a control the fluorescence of all buffer and all peptide solutions were measured to correct the observed fluorescence accordingly. The quenching process was assessed by the Stern–Volmer theory.

SaDHNA thioesterase = assay: Inhibition of SaDHNA thioesterase activity by peptides; format: biochemical, Staphylococcus aureus; conditions: 100 µM peptide, 10 µM SaDHNA, 50 mM HEPES-K+ pH 7.5, 1 mM DTNB, room temperature, 412 nm; in comparison to control assay without peptides; triplicates
Source text: According to the docking analysis, the protein-peptide complex is mediated mainly through six hydrogen bonds formed between Pep-1 and residues present in the putative active site. The benzoyl ring of the tyrosine of Pep-1 has non-covalent π-stacking interactions with the Try45 benzoyl ring of the SaDHNA structure, as well as with the side chain of Ser55 through a hydrogen bond. The residues important for the substrate binding and activity, Glu31 and Asp16, respectively, are predicted to interact with the amide of the peptide backbone and with the side chain of serine of the peptide via hydrogen bonds as well. […]
The thioesterase activity of SaDHNA was measured according to a protocol of Rodríguez-Guilbe and co-workers[36]. In a ELISA microplate the formation of 2-nitro-5-thiobenzoate anion (TNB2-) by the reaction of thiolate anion (RS^−) with Ellman′s reagent (DTNB^2−) and one mixed disulphide (R-S-TNB^−) catalysed by purified SaDHNA wild type (WT), D16A and E31N was followed by monitoring the change in absorbance of thionitrobenzoic acid (TNB) at 412 nm (extinction coefficient of 13.600 M^−1 cm^−1) using a TECAN GENios plate reader (XFLUOR4 Version: V 4.40, MTX Lab Systems, Inc, USA). […] In addition, uncatalyzed reaction rates were monitored by the combination of same reagents without the enzyme.

SaDHNA D16A = assay: Thioesterase activity of SaDHNA D16A mutant (DTNB/TNB, 412 nm); format: biochemical, Staphylococcus aureus
Description: as §1, §2

HpYbgC = conditions: in contrast to EcYbgC and HiYbgC; ref [38]; cited from earlier work
Source text: In fact, we observed the presence of a long tunnel associated with the binding site of the acyl moiety of the substrate for HpYbgC, which is ...

SaDHNA E31N = assay: Thioesterase activity of SaDHNA E31N mutant (DTNB/TNB, 412 nm); format: biochemical, Staphylococcus aureus; conditions: stearoyl-CoA as substrate, vs background level
Description: as §1, §2

[2] = target: 1,4-dihydroxy-2-naphthoyl coenzyme A thioesterase from S. aureus (S. aureus); assay: DLS + SAXS; SaDHNA at 0.8 to 2.5 mg/ml in 100 mM sodium phosphate buffer pH 6.0, 150 mM NaCl, 10 °C; ab initio model with GASBOR
[3] = target: 1,4-dihydroxy-2-naphthoyl coenzyme A thioesterase from S. aureus (S. aureus); assay: crystal structure; space group P2_(1), four molecules in the asymmetric unit; crystals from 100 mM HEPES-Na+ pH 7.0, 1.0 M lithium sulphate, 293 K; 1.3 Å
[4] = target: 1,4-dihydroxy-2-naphthoyl coenzyme A thioesterase from S. aureus (S. aureus); assay: other fluorescence titration; quenching of the intrinsic tryptophan fluorescence of 60 nM SaDHNA by peptide added from 60 up to 1000 nM; 100 mM sodium phosphate buffer pH 6.0, 150 mM NaCl, 22 °C; excitation 290 nm; Stern-Volmer and static quenching analysis of the second, slower quenching step

Row | Molecule | bimolecular quenching constant (Kq) (SaDHNA) [M⁻¹ s⁻¹] | shift of SaDHNA emission spectra maximum (SaDHNA) | fluorescence intensity of SaDHNA (SaDHNA) | quenching mechanism (SaDHNA) | SaDHNA thioesterase activity in presence of peptide (in words) (SaDHNA thioesterase) | also measured
1 | C/C=C/C(=O)SCCNC(=O)CCNC(=O)[C@H](O)C(C)(C)COP(=O)(O)OP(=O)(O)OC[C@H]1O[C@@H](n2cnc3c(N)ncnc32)[C@H](O)[C@@H]1OP(=O)(O)O [Crotonyl-CoA (C4:1), crotonyl-CoA] |  |  |  |  |  | Enzymatic activity (specific activity) ([1]; 10 μM enzyme, 50 mM HEPES-K+ pH 7.5, 1 mM DTNB, room temperature, 200 μl, absorbance 412 nm, 100 μM stearoyl-CoA or 1 mM crotonyl-CoA as substrate, triplicates): 0.27 ± 0.002 nmol TNB/min/mg protein
2 | EGEYE [Pep-2] | 9.3e+12 ± 1.8e+12 | slight blue shift of the emission | decrease in the fluorescence intensity | static mechanism | no detectable activity | 
3 | YGSDGR [Pep-1] | 1.33e+13 ± 6e+11 | did not shift the emission spectra maximum | decrease in the fluorescence intensity | static mechanism | no detectable activity | higher binding affinity to SaDHNA than Pep-2 (SaDHNA; ratio of Ka, Pep-1 vs Pep-2): 21 fold
4 | CCCCCCCCCCCCCCCCCC(=O)SCCNC(=O)CCNC(=O)[C@H](O)C(C)(C)COP(=O)(O)OP(=O)(O)OC[C@H]1O[C@@H](n2cnc3c(N)ncnc32)[C@H](O)[C@@H]1OP(=O)(O)O [Stearoyl-CoA (C18:0), stearoyl-CoA] |  |  |  |  |  | higher specific activity toward the extended acyl CoA chain in comparison to the short chain crotonyl-CoA ([1]; stearoyl-CoA vs crotonyl-CoA): 474 fold; Enzymatic activity (specific activity) (SaDHNA D16A; D16A mutant, 10 μM enzyme, 50 mM HEPES-K+ pH 7.5, 1 mM DTNB, room temperature, 412 nm, 100 μM stearoyl-CoA, triplicates): 0.43 ± 0.02 nmol TNB/min/mg protein; decrease of hydrolysis rate of stearoyl-CoA by the D16A mutant (SaDHNA D16A; D16A vs WT, stearoyl-CoA as substrate): 300 fold; activity of HpYbgC towards long acyl chains (HpYbgC): more active; activity of E31N mutant toward stearoyl-CoA (in words) (SaDHNA E31N): no activity was detected above the background level
5 | 1,4-dihydroxy-2-naphthoyl coenzyme A thioesterase from S. aureus |  |  |  |  |  | stoichiometry N [2]: 4; stoichiometry N [3]: 4
6 | EGEYE [Pep-2] |  |  |  |  |  | Kq (bimolecular quenching constant) [4]: 9.3e+12 M⁻¹ s⁻¹
